Read-outs that look alike come from different tables or passages of the source.

Data set [1] deals with Caenorhabditis elegans (C. elegans, N2 strain).
A short description of data set [2]: In vitro assays confirming flagged compound (no details given). The source says:
5.Implementation and Reproducibility
5.1 Real-World Deployment in Chemical Safety Assessment
HazChemNet has been integrated into a cloud-based decision support system for chemical safety evaluation, enabling real-time toxicity prediction for industrial and regulatory use. Key applications include:
Industrial Chemical Screening:
A pharmaceutical company utilized HazChemNet to prioritize 1,200 candidate compounds for drug development. The model identified 18% as high-risk (toxic), reducing experimental testing costs by 35%.
Environmental Regulation Compliance:
A regulatory agency deployed the model to screen 5,000 industrial chemicals under the EU REACH framework.
HazChemNet achieved 89% concordance with expert evaluations, accelerating risk assessment workflows.
5.2 Case Study: Identification of Emerging Contaminants
We applied HazChemNet to predict the toxicity of per- and polyfluoroalkyl substances (PFAS), a class of persistent environmental pollutants. The model identified 22 out of 30 PFAS compounds as hazardous, including:
PFOS (Perfluorooctanesulfonic acid): Predicted probability = 0.93 (high risk).
GenX (Hexafluoropropylene oxide dimer acid): Predicted probability = 0.87 (moderate risk).
Validation: Experimental LC50 data from zebrafish assays confirmed the predictions with a Spearman correlation of ρ […]
5.3 Integration with Laboratory Information Systems […]

Regarding `O=C(O)CC(O)(CC(=O)O)C(=O)O` [Citric Acid], in data set [1] (in vivo), the mortality entry was “no significant mortality”.
For `O=C1C=CC(=O)C(Cl)=C1` [CID_123456], the “confirmation of hazard flag by in vitro assays” value in data set [2] is given as “confirmed by in vitro assays”.
In data set [1] (L4-stage worms, 24 h at 20 °C, K-M buffer, Probit analysis), `CC(=O)[O-].CC(=O)[O-].[Pb+2]` [Lead Acetate] displayed an LD50 of 0.464 to 1 mg/mL.
On to Gibberellin, for which, in data set [1] (in vivo), the mortality result is on record as “no significant mortality”.
Regarding Ethyl Alcohol, in data set [1] (in vivo), the LD50 lay within 46.4 to 100 mg/mL.
In the case of `OCC(O)CO` [Glycerol], in data set [1] (in vivo), the mortality result is recorded as “no significant mortality”.

The record behind these values is publication PMC12524297 (International Journal of Molecular Sciences, 2025).
